One data set deals with microRNAs in serum. The data set can be described thus: Detection of microRNAs from serum preserved after mixing with acid (3D-Gene DNA microarray, total fluorescence intensity). Also on record: species or system human. The method, then: The serum which had been mixed with the acid in the step (A) was left to stand and preserved at 23° C. for 48 hours.
A quantity of 27 μL of a 4 M aqueous solution of tris(hydroxymethyl)aminomethane (manufactured by Nacalai Tesque Inc.) was mixed with the serum preserved in the step (B). […]
From the serum which had been mixed with the base in the step (C), microRNAs were collected using an RNA extraction reagent included in a 3D-Gene (registered trademark) RNA extraction reagent from liquid sample kit (manufactured by Toray Industries, Inc.), in accordance with the protocol defined by the company.
The microRNAs collected from the serum in the step (D) were fluorescently labeled, using a 3D-Gene (registered trademark) miRNA Labeling kit (manufactured by Toray Industries, Inc.), and in accordance with the protocol defined by the company. Using a 3D-Gene (registered trademark) Human miRNA Oligo chip (manufactured by Toray Industries, Inc.) containing probes having sequences complementary to 2,565 types of microRNAs, as a DNA microarray chip, hybridization was carried out in accordance with the protocol defined by the company. The DNA microarray chip was scanned using a 3D-Gene (registered trademark) scanner (manufactured by Toray Industries, Inc.), to obtain an image. The fluorescence intensities were digitized using a 3D-Gene (registered trademark) Extraction (manufactured by Toray Industries, Inc.), and the total value of the fluorescence intensities of the microRNAs which had been detected exceeding the detection limit was calculated, and the calculated value was defined as the detection level of the microRNAs.

Data set [1] in a line: pH adjustment of serum (dissolved state in serum and pH of serum). The format is physicochemical, human. Conditions: 1 mL serum added to 0.1 g composition (65 mg solid of glycine hydrochloride), 23° C. one minute. Here is the method:
From the upper layer of the serum in the tube, 0.1 mL of the serum was collected, and the measurement of the pH was performed using a handy pH meter (manufactured by HORIBA, Ltd.).

Setting [2] is: Example 13: serum of healthy subject Y, pH 3.1 after acid, 23° C. 48 hours, Tris base to pH 7.8.
[3] abbreviates: Example 14: subject Y serum, pH 3.1 after acid, 23° C. 48 hours, Tris base to pH 6.0.
The mark [4] stands for this setting: Example 15: subject Y serum, pH 3.1 after acid, 23° C. 48 hours, Tris base to pH 7.0.
The mark [5] stands for this setting: Example 16: subject Y serum, pH 3.1 after acid, 23° C. 48 hours, no base mixed (pH 3.1).
The mark [6] stands for this setting: Comparative Example 3: subject X serum, no acid (pH 7.5), 23° C. 48 hours, Tris base to pH 7.7.

Counter-ions that a name gives are not always drawn.

Regarding `O=C(O)CC(O)(CC(=O)O)C(=O)O` [Citric acid, citric acid], the “Fluorescence intensities relative to before preservation” value in the data set on microRNAs in serum (setting [2]) is listed as 104.5%; with microRNAs in serum (Example 13: serum of healthy subject Y, pH 3.1 after acid, 23° C. 48 hours, Tris base to pH 7.8, listed as citric acid), no less than 100%; in the data set with microRNAs in serum (setting [3]) it was 85.0%; in the data set with microRNAs in serum (Example 14: subject Y serum, pH 3.1 after acid, 23° C. 48 hours, Tris base to pH 6.0, listed as citric acid) it was no less than 70%; in the data set with microRNAs in serum (setting [4]) it was 85.5%; with microRNAs in serum (Example 15: subject Y serum, pH 3.1 after acid, 23° C. 48 hours, Tris base to pH 7.0, listed as citric acid) it was no less than 70%. In addition, the “Fluorescence intensities relative to before preservation” value in the data set on microRNAs in serum (setting [5]) is on record as 75.2%; in the data set with microRNAs in serum (Example 16: subject Y serum, pH 3.1 after acid, 23° C. 48 hours, no base mixed (pH 3.1), listed as citric acid) it was no less than 70%. In addition, the “Total value of fluorescence intensities” value with microRNAs in serum (setting [2]) is listed as 1.10 × 10^6; with microRNAs in serum (setting [3]), 8.95 × 10^5; with microRNAs in serum (setting [4]), 9.00 × 10^5; in the data set with microRNAs in serum (setting [5]), 7.92 × 10^5.

`NCC(=O)O` [Glycine hydrochloride, glycine hydrochloride]: the “Total value of fluorescence intensities” value with microRNAs in serum (Example 1: serum of healthy subject X, pH 2.8 after mixing acid, preserved 23° C. 48 hours, Tris base to pH 7.5) is given as 9.81 × 10^5; in the data set with microRNAs in serum (Example 2: subject X serum, pH 2.8 after acid, 23° C. 48 hours, Tris base to pH 7.7), 9.51 × 10^5; in the data set with microRNAs in serum (Example 3: subject X serum, pH 2.8 after acid, 23° C. 48 hours, Tris base to pH 8.0), 1.10 × 10^6; with microRNAs in serum (Example 4: subject X serum, pH 2.8 after acid, 23° C. 48 hours, Tris base to pH 8.5) it was 8.99 × 10^5; in the data set with microRNAs in serum (Example 5: subject X serum, pH 2.8 after acid, 23° C. 48 hours, Tris base to pH 9.0), 7.89 × 10^5; with microRNAs in serum (Example 6: subject X serum, pH 2.8 after acid, 23° C. 48 hours, Tris base to pH 6.0) it was 7.19 × 10^5. Moreover, the “Total value of fluorescence intensities” value in the data set with microRNAs in serum (Example 7: subject X serum, pH 2.8 after acid, 23° C. 48 hours, Tris base to pH 7.0) was 7.23 × 10^5; with microRNAs in serum (Example 8: subject X serum, pH 2.8 after acid, 23° C. 48 hours, no base mixed (pH 2.8)), 6.25 × 10^5; in the data set on microRNAs in serum (Example 9: subject X serum, pH 4.0 after acid, 23° C. 48 hours, Tris base to pH 7.7), 1.05 × 10^6; with microRNAs in serum (Example 10: subject X serum, pH 2.8 after acid, 23° C. 2 hours, Tris base to pH 7.7) it was 8.70 × 10^5; in the data set with microRNAs in serum (Example 11: subject X serum, pH 2.8 after acid, 23° C. 6 hours, Tris base to pH 7.7) it was 9.07 × 10^5; in the data set with microRNAs in serum (Example 12: subject X serum, pH 2.8 after acid, 23° C. 96 hours, Tris base to pH 7.7), 1.00 × 10^6. For the same compound, the pH of serum in data set [1] (upper layer, pH 7.7 before the addition) stood at 4.5. In addition, in data set [1] (visual observation), the “dissolved state in serum” value is “did not quickly dissolve in the serum”.

As to tris(hydroxymethyl)aminomethane, in the data set on microRNAs in serum (setting [6]), the “Fluorescence intensities relative to before preservation” value came to 16.3% and the “Total value of fluorescence intensities” value is 1.39 × 10^5.

For the origin of these results see US20240229116A9, “METHOD FOR DETECTING MICRORNA IN BIOLOGICAL SAMPLE, COMPOSITION OF HYDROCHLORIDE OF NEUTRAL AMINO ACID, AND CONTAINER” (Toray Industries, Inc., priority 2021, published 2024).
